Measured values from PMC4703549 (Cancer research, 2015).
Entries after “also recorded” stand apart in the source; their conditions may differ. Like-named read-outs stand apart in the source and are kept apart here.

Assays:
[1] = tested on: TNK2 D163E cells; type: cell-based, murine; conditions: for IC50: Ba/F3 TNK2 D163E, no IL3, 72 hours, MTS
[2] = tested on: TNK2 R806Q cells; type: cell-based, murine; conditions: for IC50: Ba/F3 TNK2 R806Q, no IL3, 72 hours, MTS
[3] = tested on: TNK2 D163E T205I and T205M Ba/F3 lines; type: cell-based, murine; conditions: T205I and T205M added to D163E, IL-3 independent Ba/F3 lines
[4] = tested on: TNK2 S808* and TNK2 Q831fs; assay: Phosphorylation of TNK2 truncation mutants in transfected 293T17 cells; type: cell-based, human; conditions: 1 μM dasatinib, 2.5 μM XMD8-87 or 2.5 μM XMD16-5, 3.5 hours
[5] = tested on: parental Ba/F3 cells; assay: Inhibitor study, MTS viability of control Ba/F3 cells grown in IL3; type: cell-based, murine; conditions: IL3 containing medium; highest tested concentration 1,000 nM

SMILES | IC50 [1] | IC50 [2] | sensitivity of D163E cell lines carrying gatekeeper mutations [3] | inhibition of phosphorylation of TNK2 truncation mutants [4] | sensitivity of post-transformation line ([1]; Ba/F3 TNK2 D163E post-interleukin-3-independent transformation) | IC50 ([1]; listed as Dasatinib) | sensitivity of post-transformation line ([2]; Ba/F3 TNK2 R806Q post-interleukin-3-independent transformation) | IC50 ([2]; listed as Dasatinib) | sensitivity of control or pre-transformation cell lines grown in IL3 [5]
c1ccc(-c2oc3ncnc(NC[C@@H]4CCCO4)c3c2-c2ccccc2)cc1 [AIM-100] | 91 nM | 320 nM | resistance | – | – | – | – | – | –
COc1cc(N2CCN(C)CC2)ccc1Nc1ncc2c(n1)N(C)c1ccccc1C(=O)N2 [XMD8-87] | 38 nM | 113 nM | resistance | vast majority of phosphorylation was blocked; also recorded: inhibited; also recorded: potently inhibit | – | – | – | – | –
CN1c2ccccc2C(=O)Nc2cnc(Nc3ccc(N4CCC(O)CC4)cc3)nc21 [XMD16-5] | 16 nM | 77 nM | resistance | vast majority of phosphorylation was blocked; also recorded: inhibited; also recorded: potently inhibit | – | – | – | – | –
Cc1nc(Nc2ncc(C(=O)Nc3c(C)cccc3Cl)s2)cc(N2CCN(CCO)CC2)n1 [dasatinib, N-(2-chloro-6-methyl-phenyl)-2-(6-(4-(2-hydroxyethyl)-piperazin-1-yl)-2-methylpyrimidin-4-ylamino)thiazole-5-carboxamide] | < 10 nM | < 10 nM | resistance | vast majority of phosphorylation was blocked; also recorded: inhibited | sensitive to dasatinib at low nanomolar concentrations | ~0.1 nM | sensitive to dasatinib at low nanomolar concentrations | 1.3 nM | did not show sensitivity; also recorded: completely insensitive
